Data published in US20020137929A1, “1 - (3-heterocyclylphenyl) isothiourea, -isourea, -guanidine and -amidine herbicidal agents” (Intellectual Property Department, BASF Aktiengesellschaft, priority 1998, published 2002).

What was measured:
SETVI (Foxtail, Green) [1] = test: Preemergence herbicidal evaluation; format: in vivo, Setaria viridis; details: rated 4-5 weeks after treatment, rating scale 0-9
Summary of the method: (§1)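 Scores (0–9) reflect visual comparison with control plants for stand, vigor, malformation, size and chlorosis. Compound was applied to the soil after sowing, before emergence, as an aqueous acetone spray (about 0.0156–0.500 kg/ha), and cups were kept in a greenhouse for 4–5 weeks.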

MOOVA (Monochoria) = test: Preemergence weed control under flooded paddy conditions; format: in vivo, Monochoria vaginalis; details: rated 3-4 weeks after treatment
Summary of the method: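 First, seeds or propagules go into the top 0.5 cm of silt loam; next, water is held 1.5 to 3 cm over the soil; then compound (50/50 acetone/water) is pipetted into it at about 0.0313 to 0.500 kg/ha; finally plants are rated visually 0-9 after three to four weeks.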

[2] = system: IPOHE (Morningglory, Ivyleaf); test: Postemergence herbicidal evaluation; format: in vivo, Ipomoea hederacea; details: postemergence
Summary of the method: (§2)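 Two-week-old seedlings sprayed with compound in 50/50 acetone/water plus 0.5% TWEEN 20, at about 0.0156 to 0.500 kg/ha, nozzle at 40 psi. Kept in greenhouse; rated visually 4-5 weeks after treatment on a 0-9 scale versus control, repeat tests averaged.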

[3] = system: IPOHE (Morningglory, Ivyleaf); test: Preemergence herbicidal evaluation; format: in vivo, Ipomoea hederacea; details: rated 4-5 weeks after treatment, rating scale 0-9
Summary of the method: as §1

ECHCG (Barnyardgrass) = test: Preemergence herbicidal evaluation; format: in vivo, Echinochloa crus-galli; details: rated 4-5 weeks after treatment, rating scale 0-9
Summary of the method: as §1

GALAP (Galium) = test: Postemergence herbicidal evaluation; format: in vivo, Galium aparine; details: postemergence
Summary of the method: as §2

CYPIR (Rice Flatsedge) = test: Preemergence weed control under flooded paddy conditions; format: in vivo, Cyperus iria; details: rated 3-4 weeks after treatment
Summary of the method: (§3)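 Seeds or propagules sown in silt loam kept flooded 1.5-3 cm; compounds in 50/50 acetone/water pipetted into flood water at about 0.0313 to 0.500 kg/ha. Greenhouse; visual 0-9 rating versus untreated control 3-4 weeks after treatment.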

SETVI (Foxtail, Green) [4] = test: Postemergence herbicidal evaluation; format: in vivo, Setaria viridis; details: postemergence
Summary of the method: as §2

[5] = system: TRZAWR (Wheat, Winter, cv Riband); test: Postemergence herbicidal evaluation; format: in vivo, Triticum aestivum; details: postemergence
Summary of the method: as §2

[6] = system: ECHORC (Watergrass (Calif.)); test: Preemergence weed control under flooded paddy conditions; format: in vivo, Echinochloa oryzoides; details: rated 3-4 weeks after treatment
Summary of the method: as §3

ABUTH (Velvetleaf) = test: Preemergence herbicidal evaluation; format: in vivo, Abutilon theophrasti; details: rated 4-5 weeks after treatment, rating scale 0-9
Summary of the method: as §1

ZEAMX (Corn, Field) = test: Preemergence herbicidal evaluation; format: in vivo, Zea mays; details: rated 4-5 weeks after treatment, rating scale 0-9
Summary of the method: as §1

With `Cn1c(C(F)(F)F)cc(=O)n(-c2cc(N=C3SCC(=O)N3Cc3cccc(Cl)c3)c(Cl)cc2F)c1=O` [Compound 136, 3-{4-Chloro-5-{[3-(m-chlorobenzyl)-4-oxo-2-thiazolidinylidene]amino}-2-fluorophenyl}-1-methyl-6-(trifluoromethyl)-2,4(1H,3H)-pyrimidinedione] the “Preemergence herbicidal rating SETVI” value (SETVI (Foxtail, Green) [1]; rate 0.0156 kg/ha) was 0.0, the “Preemergence herbicidal rating SETVI” value (SETVI (Foxtail, Green) [1]; rate 0.0313 kg/ha) was 0.0 and the “Preemergence herbicidal rating SETVI” value (SETVI (Foxtail, Green) [1]; rate 0.0625 kg/ha) was 2.0. The “Preemergence herbicidal rating SETVI” value (SETVI (Foxtail, Green) [1]; rate 0.1250 kg/ha) was 4.0, the “Preemergence herbicidal rating SETVI” value (SETVI (Foxtail, Green) [1]; rate 0.2500 kg/ha) was 7.0 and the “herbicidal effect rating, MOOVA” value (MOOVA (Monochoria); 0.0313 kg/ha) was 3.0. The “herbicidal effect rating, MOOVA” value (MOOVA (Monochoria); 0.0625 kg/ha) was 4.0, the “herbicidal effect rating, MOOVA” value (MOOVA (Monochoria); 0.1250 kg/ha) was 9.0 and the “herbicidal effect rating, MOOVA” value (MOOVA (Monochoria); 0.2500 kg/ha) was 9.0. For the same compound, the “Herbicidal rating IPOHE” value ([2]; rate 0.0156 kg/ha) was 9.0, the “Herbicidal rating IPOHE” value ([2]; rate 0.0313 kg/ha) was 9.0 and the “Herbicidal rating IPOHE” value ([2]; rate 0.0625 kg/ha) was 9.0. For the same compound, the “Preemergence herbicidal rating IPOHE” value ([3]; rate 0.0156 kg/ha) was 0.0, the “Preemergence herbicidal rating IPOHE” value ([3]; rate 0.0313 kg/ha) was 0.0 and the “Preemergence herbicidal rating IPOHE” value ([3]; rate 0.0625 kg/ha) was 0.0. The “Preemergence herbicidal rating IPOHE” value ([3]; rate 0.1250 kg/ha) was 0.0, the “Preemergence herbicidal rating IPOHE” value ([3]; rate 0.2500 kg/ha) was 0.0 and the “Preemergence herbicidal rating ECHCG” value (ECHCG (Barnyardgrass); rate 0.0156 kg/ha) was 0.0. The “Preemergence herbicidal rating ECHCG” value (ECHCG (Barnyardgrass); rate 0.0313 kg/ha) was 0.0, the “Preemergence herbicidal rating ECHCG” value (ECHCG (Barnyardgrass); rate 0.0625 kg/ha) was 0.0 and the “Preemergence herbicidal rating ECHCG” value (ECHCG (Barnyardgrass); rate 0.1250 kg/ha) was 0.0. For the same compound, the “Preemergence herbicidal rating ECHCG” value (ECHCG (Barnyardgrass); rate 0.2500 kg/ha) was 0.0, the “Herbicidal rating GALAP” value (GALAP (Galium); rate 0.0156 kg/ha) was 1.0 and the “Herbicidal rating GALAP” value (GALAP (Galium); rate 0.0313 kg/ha) was 2.0. For the same compound, the “Herbicidal rating GALAP” value (GALAP (Galium); rate 0.0625 kg/ha) was 3.0, the “herbicidal effect rating, CYPIR” value (CYPIR (Rice Flatsedge); 0.0313 kg/ha) was 0.0 and the “herbicidal effect rating, CYPIR” value (CYPIR (Rice Flatsedge); 0.0625 kg/ha) was 5.0. The “herbicidal effect rating, CYPIR” value (CYPIR (Rice Flatsedge); 0.1250 kg/ha) was 6.0, the “herbicidal effect rating, CYPIR” value (CYPIR (Rice Flatsedge); 0.2500 kg/ha) was 7.0 and the “Herbicidal rating SETVI” value (SETVI (Foxtail, Green) [4]; rate 0.0156 kg/ha) was 4.0. For the same compound, the “Herbicidal rating SETVI” value (SETVI (Foxtail, Green) [4]; rate 0.0313 kg/ha) was 6.0, the “Herbicidal rating SETVI” value (SETVI (Foxtail, Green) [4]; rate 0.0625 kg/ha) was 6.0 and the “Herbicidal rating TRZAWR” value ([5]; rate 0.0156 kg/ha) was 2.5. For the same compound, the “Herbicidal rating TRZAWR” value ([5]; rate 0.0313 kg/ha) was 3.0, the “Herbicidal rating TRZAWR” value ([5]; rate 0.0625 kg/ha) was 3.0 and the “herbicidal effect rating, ECHORC” value ([6]; 0.0313 kg/ha) was 7.0. For the same compound, the “herbicidal effect rating, ECHORC” value ([6]; 0.0625 kg/ha) was 7.0, the “herbicidal effect rating, ECHORC” value ([6]; 0.1250 kg/ha) was 7.0 and the “herbicidal effect rating, ECHORC” value ([6]; 0.2500 kg/ha) was 9.0. For the same compound, the “Preemergence herbicidal rating ABUTH” value (ABUTH (Velvetleaf); rate 0.0156 kg/ha) was 4.0, the “Preemergence herbicidal rating ABUTH” value (ABUTH (Velvetleaf); rate 0.0313 kg/ha) was 9.0 and the “Preemergence herbicidal rating ABUTH” value (ABUTH (Velvetleaf); rate 0.0625 kg/ha) was 9.0. For the same compound, the “Preemergence herbicidal rating ABUTH” value (ABUTH (Velvetleaf); rate 0.1250 kg/ha) was 9.0, the “Preemergence herbicidal rating ABUTH” value (ABUTH (Velvetleaf); rate 0.2500 kg/ha) was 9.0 and the “Preemergence herbicidal rating ZEAMX” value (ZEAMX (Corn, Field); rate 0.0156 kg/ha) was 0.0. For the same compound, the “Preemergence herbicidal rating ZEAMX” value (ZEAMX (Corn, Field); rate 0.0313 kg/ha) was 0.0, the “Preemergence herbicidal rating ZEAMX” value (ZEAMX (Corn, Field); rate 0.0625 kg/ha) was 0.0 and the “Preemergence herbicidal rating ZEAMX” value (ZEAMX (Corn, Field); rate 0.1250 kg/ha) was 1.0. For the same compound, the “Preemergence herbicidal rating ZEAMX” value (ZEAMX (Corn, Field); rate 0.2500 kg/ha) was 3.0.
